Reference: the supplement of paper PMC10307832

Tests used:
Experiment in all cases: relative viability (nuclei count vs DMSO), 5 days (fraction); higher = more cells survive
[1] = compound: CC[C@H](C)N1C=C(C2=C(C=C(C=C21)C3=CN=C(C=C3)N4CCNCC4)C(=O)NCC5=C(C=C(NC5=O)C)C)C [GSK126] + O=C(c1cc(Cc2n[nH]c(=O)c3ccccc23)ccc1F)N1CCN(C(=O)C2CC2)CC1 [Olaparib] (partner 8 µM)
How it was run: (§1)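 Relative viability divides the nuclei count in treated wells by that in vehicle wells. Lung cancer cell lines were seeded in 1536-well plates, dosed by pin tool the next day, and fixed and stained after 5 days in one step with final 0.05% Triton X-100, 1% formaldehyde and 1 ug/ml Hoechst. Dosing was a single drug or a fixed anchor-drug dose plus five library-drug doses (not always all listed) in √10 steps, and values are medians of duplicate plates imaged at 4×.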

[2] = compound: C1CC(C1)(C(=O)O)C(=O)O.[NH2-].[NH2-].[Pt+2] [Carboplatin] + Cc1nc(NC(=O)N2CCC[C@H]2C(N)=O)sc1-c1ccnc(C(C)(C)C(F)(F)F)c1 [Alpelisib] (partner 2 µM)
How it was run: as §1

[3] = compound: CC[C@H](C)N1C=C(C2=C(C=C(C=C21)C3=CN=C(C=C3)N4CCNCC4)C(=O)NCC5=C(C=C(NC5=O)C)C)C [GSK126] + CC(=O)Nc1cccc(-n2c(=O)n(C3CC3)c(=O)c3c(Nc4ccc(I)cc4F)n(C)c(=O)c(C)c32)c1 [Trametinib] (partner 0.02 µM)
How it was run: as §1

[4] = compound: NS(=O)(=O)OC[C@@H]1C[C@@H](n2ccc3c(N[C@H]4CCc5ccccc54)ncnc32)C[C@@H]1O [MLN4924] + CS(=O)(=O)CCNCc1ccc(-c2ccc3ncnc(Nc4ccc(OCc5cccc(F)c5)c(Cl)c4)c3c2)o1 [Lapatinib] (partner 2 µM)
How it was run: as §1

## LCLC-103H
[1]; first compound 0.08 µM
  relative viability: 0.837
[1]; first compound 0.253 µM
  relative viability: 0.791
[1]; first compound 0.8 µM
  relative viability: 0.774
[1]; first compound 2.53 µM
  relative viability: 0.792
[1]; first compound 8 µM
  relative viability: 0.795
[2]; first compound 0.08 µM
  relative viability: 1.1
[2]; first compound 0.253 µM
  relative viability: 0.975
[2]; first compound 0.8 µM
  relative viability: 1.09
[2]; first compound 2.53 µM
  relative viability: 1
[2]; first compound 8 µM
  relative viability: 0.934
[3]; first compound 0.08 µM
  relative viability: 0.71
[3]; first compound 0.253 µM
  relative viability: 0.708
[3]; first compound 0.8 µM
  relative viability: 0.647
[3]; first compound 2.53 µM
  relative viability: 0.64
[3]; first compound 8 µM
  relative viability: 0.725

## LK-2
[1]; first compound 0.08 µM
  relative viability: 0.904
[1]; first compound 0.253 µM
  relative viability: 0.71
[1]; first compound 0.8 µM
  relative viability: 0.727
[1]; first compound 2.53 µM
  relative viability: 0.859
[1]; first compound 8 µM
  relative viability: 0.689
[4]; first compound 0.04 µM
  relative viability: 0.521
[4]; first compound 0.1265 µM
  relative viability: 0.656
[4]; first compound 0.4 µM
  relative viability: 0.638
[4]; first compound 1.265 µM
  relative viability: 0.272
[4]; first compound 4 µM
  relative viability: 0.257
[2]; first compound 0.08 µM
  relative viability: 1.41
[2]; first compound 0.253 µM
  relative viability: 1.23
[2]; first compound 0.8 µM
  relative viability: 0.837
[2]; first compound 2.53 µM
  relative viability: 0.961
[2]; first compound 8 µM
  relative viability: 1.09
[3]; first compound 0.08 µM
  relative viability: 0.861
[3]; first compound 0.253 µM
  relative viability: 0.817
[3]; first compound 0.8 µM
  relative viability: 0.779
[3]; first compound 2.53 µM
  relative viability: 0.857
[3]; first compound 8 µM
  relative viability: 0.575

## LOU-NH91
[1]; first compound 0.08 µM
  relative viability: 0.938
[1]; first compound 0.253 µM
  relative viability: 0.942
[1]; first compound 0.8 µM
  relative viability: 0.879
[1]; first compound 2.53 µM
  relative viability: 0.956
[1]; first compound 8 µM
  relative viability: 0.887
[4]; first compound 0.04 µM
  relative viability: 0.814
[4]; first compound 0.1265 µM
  relative viability: 0.926
[4]; first compound 0.4 µM
  relative viability: 0.904
[4]; first compound 1.265 µM
  relative viability: 0.533
[4]; first compound 4 µM
  relative viability: 0.414
[2]; first compound 0.08 µM
  relative viability: 0.797
[2]; first compound 0.253 µM
  relative viability: 0.731
[2]; first compound 0.8 µM
  relative viability: 0.7
[2]; first compound 2.53 µM
  relative viability: 0.688
[2]; first compound 8 µM
  relative viability: 0.688
[3]; first compound 0.08 µM
  relative viability: 0.813
[3]; first compound 0.253 µM
  relative viability: 0.771
[3]; first compound 0.8 µM
  relative viability: 0.765
[3]; first compound 2.53 µM
  relative viability: 0.821
[3]; first compound 8 µM
  relative viability: 0.761

## NCI-H441
[1]; first compound 0.08 µM
  relative viability: 0.612
[1]; first compound 0.253 µM
  relative viability: 0.561
[1]; first compound 0.8 µM
  relative viability: 0.566
[1]; first compound 2.53 µM
  relative viability: 0.539
[1]; first compound 8 µM
  relative viability: 0.44
[2]; first compound 0.08 µM
  relative viability: 0.896
[2]; first compound 0.253 µM
  relative viability: 0.694
[2]; first compound 0.8 µM
  relative viability: 0.643
[2]; first compound 2.53 µM
  relative viability: 0.651
[2]; first compound 8 µM
  relative viability: 0.692
[3]; first compound 0.08 µM
  relative viability: 0.538
[3]; first compound 0.253 µM
  relative viability: 0.471
[3]; first compound 0.8 µM
  relative viability: 0.571
[3]; first compound 2.53 µM
  relative viability: 0.483
[3]; first compound 8 µM
  relative viability: 0.343

## NCI-H522
[1]; first compound 0.08 µM
  relative viability: 0.61
[1]; first compound 0.253 µM
  relative viability: 0.599
[1]; first compound 0.8 µM
  relative viability: 0.639
[1]; first compound 2.53 µM
  relative viability: 0.611
[1]; first compound 8 µM
  relative viability: 0.699
[3]; first compound 0.08 µM
  relative viability: 0.773
[3]; first compound 0.253 µM
  relative viability: 0.716
[3]; first compound 0.8 µM
  relative viability: 0.647
[3]; first compound 2.53 µM
  relative viability: 0.654
[3]; first compound 8 µM
  relative viability: 0.829

## NCI-H1299
[1]; first compound 0.08 µM
  relative viability: 1
[1]; first compound 0.253 µM
  relative viability: 0.93
[1]; first compound 0.8 µM
  relative viability: 0.922
[1]; first compound 2.53 µM
  relative viability: 0.921
[1]; first compound 8 µM
  relative viability: 0.976
[4]; first compound 0.04 µM
  relative viability: 0.954
[4]; first compound 0.1265 µM
  relative viability: 0.838
[4]; first compound 0.4 µM
  relative viability: 0.329
[4]; first compound 1.265 µM
  relative viability: 0.282
[4]; first compound 4 µM
  relative viability: 0.253
[2]; first compound 0.08 µM
  relative viability: 1.06
[2]; first compound 0.253 µM
  relative viability: 1.11
[2]; first compound 0.8 µM
  relative viability: 0.997
[2]; first compound 2.53 µM
  relative viability: 1.02
[2]; first compound 8 µM
  relative viability: 0.909

## NCI-H1563
[4]; first compound 0.04 µM
  relative viability: 1.38
[4]; first compound 0.1265 µM
  relative viability: 0.759
[4]; first compound 0.4 µM
  relative viability: 0.627
[4]; first compound 1.265 µM
  relative viability: 0.485
[4]; first compound 4 µM
  relative viability: 0.61
[2]; first compound 0.08 µM
  relative viability: 1.04
[2]; first compound 0.253 µM
  relative viability: 0.925
[2]; first compound 0.8 µM
  relative viability: 0.91
[2]; first compound 2.53 µM
  relative viability: 0.921
[2]; first compound 8 µM
  relative viability: 0.984

## NCI-H1648
[1]; first compound 0.08 µM
  relative viability: 1.01
[1]; first compound 0.253 µM
  relative viability: 1.22
[1]; first compound 0.8 µM
  relative viability: 0.774
[1]; first compound 2.53 µM
  relative viability: 1.1
[1]; first compound 8 µM
  relative viability: 0.908
[3]; first compound 0.08 µM
  relative viability: 0.544
[3]; first compound 0.253 µM
  relative viability: 0.959
[3]; first compound 0.8 µM
  relative viability: 0.409
[3]; first compound 2.53 µM
  relative viability: 0.522
[3]; first compound 8 µM
  relative viability: 0.445

## NCI-H1650
[1]; first compound 0.08 µM
  relative viability: 0.742
[1]; first compound 0.253 µM
  relative viability: 0.849
[1]; first compound 0.8 µM
  relative viability: 0.761
[1]; first compound 2.53 µM
  relative viability: 0.784
[1]; first compound 8 µM
  relative viability: 0.901
[4]; first compound 0.04 µM
  relative viability: 0.385
[4]; first compound 0.1265 µM
  relative viability: 0.261
[4]; first compound 0.4 µM
  relative viability: 0.182
[4]; first compound 1.265 µM
  relative viability: 0.149
[4]; first compound 4 µM
  relative viability: 0.185
[3]; first compound 0.08 µM
  relative viability: 0.631
[3]; first compound 0.253 µM
  relative viability: 0.656
[3]; first compound 0.8 µM
  relative viability: 0.428
[3]; first compound 2.53 µM
  relative viability: 0.578
[3]; first compound 8 µM
  relative viability: 0.654

## NCI-H1703
[1]; first compound 0.08 µM
  relative viability: 0.576
[1]; first compound 0.253 µM
  relative viability: 0.351
[1]; first compound 0.8 µM
  relative viability: 0.694
[1]; first compound 2.53 µM
  relative viability: 0.455
[1]; first compound 8 µM
  relative viability: 0.492
[4]; first compound 0.04 µM
  relative viability: 0.416
[4]; first compound 0.1265 µM
  relative viability: 0.205
[4]; first compound 0.4 µM
  relative viability: 0.218
[4]; first compound 1.265 µM
  relative viability: 0.189
[4]; first compound 4 µM
  relative viability: 0.164
[2]; first compound 0.08 µM
  relative viability: 0.373
[2]; first compound 0.253 µM
  relative viability: 0.335
[2]; first compound 0.8 µM
  relative viability: 0.417
[2]; first compound 2.53 µM
  relative viability: 0.407
[2]; first compound 8 µM
  relative viability: 0.421

## NCI-H2342
[1]; first compound 0.08 µM
  relative viability: 0.447
[1]; first compound 0.253 µM
  relative viability: 0.501
[1]; first compound 0.8 µM
  relative viability: 0.392
[1]; first compound 2.53 µM
  relative viability: 0.424
[1]; first compound 8 µM
  relative viability: 0.469
[3]; first compound 0.08 µM
  relative viability: 0.786
[3]; first compound 0.253 µM
  relative viability: 0.739
[3]; first compound 0.8 µM
  relative viability: 0.815
[3]; first compound 2.53 µM
  relative viability: 0.869
[3]; first compound 8 µM
  relative viability: 0.984

## SW 900
[1]; first compound 0.08 µM
  relative viability: 0.909
[1]; first compound 0.253 µM
  relative viability: 0.751
[1]; first compound 0.8 µM
  relative viability: 0.866
[1]; first compound 2.53 µM
  relative viability: 0.885
[1]; first compound 8 µM
  relative viability: 0.888
[3]; first compound 0.08 µM
  relative viability: 0.801
[3]; first compound 0.253 µM
  relative viability: 0.507
[3]; first compound 0.8 µM
  relative viability: 0.86
[3]; first compound 2.53 µM
  relative viability: 0.901
[3]; first compound 8 µM
  relative viability: 0.615
